Test results reported in paper PMC10537229, “Antimicrobial Peptides Originating from Expression Libraries of Aurelia aurita and Mnemiopsis leidyi Prevent Biofilm Formation of Opportunistic Pathogens” (Microorganisms, 2023).
Entries after “also recorded” stand apart in the source; their conditions may differ.

Assays:
P. aeruginosa = experiment: Growth of planktonic-growing pathogens (turbidity at 600 nm); format: cell-based, Pseudomonas aeruginosa; conditions: 18 h; for turbidity (600 nm), P. aeruginosa: 112.5 µg/mL peptide, LB, 80 rpm, 37 °C, mean of 2 biological x 8 technical replicates, control 1.2788369; for reduction of planktonic growth of P. aeruginosa: 112.5 µg/mL, versus control without peptide
Procedure: (§1) In addition, the potential growth-inhibiting effects of synthetic peptides were tested on planktonic-growing pathogens. Again, 3 × 10^8 cells/mL diluted in LB medium were aliquoted in 96-well plates (200 µL for each cavity). Synthetic peptides were added to two selected final concentrations of 3.5 µg/mL and 112.5 µg/mL at the beginning of the experiment. MTPs were closed with gas-permeable membranes and gently shaken at 80 rpm and 37 °C (P. aeruginosa, S. aureus, and S. epidermidis) or 30 °C (K. oxytoca) for 18 h. A comparative endpoint determination (growth control, peptide control IDR-1018, and identified peptides) of the turbidity at 600 nm was measured with plate reader Spectra max Plus 384. An unpaired t-test was conducted as a statistical hypothesis test to determine the significance (p-value) of growth differences.

P. aeruginosa PAO1 = experiment: Biofilm prevention in vitro assay (crystal violet, static); format: cell-based, Pseudomonas aeruginosa; conditions: synthetic peptide 0.4-112.5 µg/mL, 18 h
Procedure: (§2) The opportunistic pathogenic bacteria K. oxytoca (DSM 7342, M5a1-type strain), P. aeruginosa PAO1 (DSM 1707, pathogenic-type strain), S. epidermidis RP62A (DSM 28319, clinical isolate from catheter sepsis), and S. aureus (DSM 11823, clinical isolate) were grown in 5 mL LB medium overnight at below-indicated temperatures. The cell concentrations of the overnight cultures were analyzed with Neubauer cell counting and set to 3 × 10^8 cells/mL using GC minimal medium (with 1% (v/v) glycerol and 0.3% (w/v) casamino acids) for K. oxytoca and Caso bouillon (17 g/L casein peptone, 3 g/L soybean peptone, 5 g/L NaCl, 2.5 g/L K2HPO4, and 2.5 g/L glucose) for the remaining strains in the crystal violet assay. Cultures were aliquoted in 96-well plates (180/195 µL for each cavity). Cell-free size-fractionated cell extracts (20 µL) and synthesized peptides (various concentrations, 5 µL) were added to the cultures. MTPs were closed with gas-permeable membranes (Breathe-Easy®, Diversified Biotech, Dedham, MA, USA) and incubated at 37 °C (P. aeruginosa, S. aureus, and S. epidermidis) or 30 °C (K. oxytoca) for 18 h without shaking. Three biological replicates were performed, each with eight technical replicates. Medium controls were performed for normalization. Biofilm formation was monitored and quantified using the crystal violet assay. Following an 18 h incubation period, the cell cultures were removed, and the wells underwent two washes with H2O. Biofilms that developed and adhered to the surfaces were subjected to staining using 200 μL of a 0.1% crystal violet solution (Carl Roth, Karlsruhe, Germany) for 10 min at room temperature (RT). The stained biofilms were left to air dry after eliminating the crystal violet solution through two H2O washes. A total of 200 μL of 96% ethanol was introduced into each stained well to solubilize the dye, and incubation at RT for 15 min followed. Biofilm formation was assessed by measuring the absorbance of resolved crystal violet at 590 nm with the plate reader Spectra max Plus 384 (Molecular Devices, Ismaning; Germany). The screening procedure is depicted in Figure S1.

S. aureus [1] = experiment: Growth of planktonic-growing pathogens (turbidity at 600 nm); format: cell-based, Staphylococcus aureus; conditions: 18 h; for turbidity (600 nm), S. aureus: 112.5 µg/mL peptide, LB, 80 rpm, 37 °C, mean of 2 biological x 8 technical replicates, control 1.37192917; for reduction of planktonic growth of S. aureus: 112.5 µg/mL, versus control without peptide
Procedure: as §1

S. aureus [2] = experiment: Biofilm prevention in vitro assay (crystal violet, static); format: cell-based, Staphylococcus aureus; conditions: synthetic peptide 0.4-112.5 µg/mL, 18 h
Procedure: as §2

K. oxytoca [3] = experiment: as above; format: cell-based, Klebsiella oxytoca; conditions: 18 h; for effect on K. oxytoca biofilm formation (in words) / reduction of K. oxytoca biofilm formation over concentration range: synthetic peptide 0.4-112.5 µg/mL; for reduction of K. oxytoca biofilm formation over concentration range: maximum or overall reduction; for reduction of K. oxytoca biofilm formation at 112.5 µg/mL: synthetic peptide at highest concentration 112.5 µg/mL
Procedure: as §2

S. epidermidis RP62A = experiment: as above; format: cell-based, Staphylococcus epidermidis; conditions: 18 h; for effect on S. epidermidis biofilm formation (in words) / reduction of S. epidermidis biofilm formation over concentration range: synthetic peptide 0.4-112.5 µg/mL; for reduction of S. epidermidis biofilm formation over concentration range: maximum or range of reduction
Procedure: as §2

K. oxytoca [4] = experiment: Growth of planktonic-growing pathogens (turbidity at 600 nm); format: cell-based, Klebsiella oxytoca; conditions: 112.5 µg/mL peptide, LB, 18 h, 80 rpm, 30 °C; mean of 2 biological x 8 technical replicates; control 1.21326667
Procedure: as §1

S. epidermidis = experiment: as above; format: cell-based, Staphylococcus epidermidis; conditions: 112.5 µg/mL peptide, LB, 18 h, 80 rpm, 37 °C; mean of 2 biological x 8 technical replicates; control 1.3398
Procedure: as §1

K. oxytoca M5aI = experiment: Dynamic biofilm formation in microfluidic flow cell (Syto9, CLSM); format: cell-based, Klebsiella oxytoca; conditions: peptide 10 ng/channel, GC medium, flow 15 µL/h, 24 h, 30 °C, mean ± SD of four biological x four technical replicates; for biofilm thickness: medium control 11 ± 6 µm; for biofilm volume: medium control 112 ± 62 µm^3
Text: The microfluidic flow cell system comprises a polymethyl methacrylate corpus with a single channel (1 × 8 × 0.1 mm). Two inlets and one outlet exist. A borosilicate glass (24 × 60 × 0.17 mm; Carl Roth, Karlsruhe, Germany) was fixed with the adhesive Black-Seal silicone (Weicon, Münster, Germany). Microliter syringes (Innovative Labor System GmbH, Stützenbach, Germany) were connected via polytetrafluoroethylene (PTFE) tubes (0.3 mm × 0.6 mm) (Bola, Grünsfeld, Germany) with the in- and outlets and clamped into a syringe pump (Model: 220) (KD Scientific, Holliston, MA, USA). The channel was sterilized by rinsing 70% EtOH for 24 h at a flow rate of 20 µL/h. Afterwards, the remaining ethanol was washed out with sterile water at 20 μL/h for 1 h. Subsequently, the channel was equilibrated with GC medium at 20 μL/h for 2 h. Inoculation was conducted with a cell suspension of 1 × 10^9 cells/mL, generated from an overnight culture of K. oxytoca M5aI. Initial cell adhesion was ensured by incubation at 30 °C for 1 h without any flow. Next, the channel was continuously rinsed at 15 μL/h with GC medium injected within the first inlet. The synthetic peptides IDR-1018 (biofilm-preventing control peptide, [47, 48], BiP_Aa_2, BiP_Aa_5, and BiP_Aa_6 were diluted in GC medium to a concentration of 25 µg/mL and injected within the second inlet. Thus, the final peptide concentration was 12.5 µg/mL, corresponding to 10 ng peptide within the 0.8 µL channel. Biofilm formation was conducted at a flow rate of 15 µL/h for 24 h at 30 °C. The biofilm formation of K. oxytoca M5aI was further studied without adding peptides. Four biological replicates were conducted for each treatment.
Biofilms were stained with the fluorescent dye Syto9 (488 nm) (Life Technologie, Carlsbad, CA, USA) and analyzed using the LSM 700 confocal laser scanning microscope (Zeiss, Oberkochen, Germany). Therefore, the microfluidic flow cells were washed with GC medium at 3 µL/min for 15 min. The channel was then filled with a 1:1000 dilution of the fluorescent dye Syto9 and incubated in the dark at RT for 30 min. Dye residues were removed by rinsing GC medium at 3 μL/min for 15 min. Four image stacks were recorded per flow cell with optical sections of 0.9 µm per z-step. The digital image acquisition, three-dimensional reconstruction, and calculation of the biofilm parameters were performed with the software “Zen Black” (version 14.0.22.201) (Zeiss, Oberkochen, Germany) and the microscopy image analysis software “Imaris” (version 9.9.0) (Oxford Instruments, Abingdon, UK).

[5] = Dimerization of peptide with increasing concentration (preliminary results); format: physicochemical
[6] = test system: K. oxytoca, P. aeruginosa, S. epidermidis, and S. aureus; experiment: Planktonic growth, statements on all pathogens; format: cell-based; conditions: 18 h; for effect on planktonic growth (in words), high concentration: 112.5 µg/mL, all strains
Procedure: as §1

biofilm cells = conditions: cited from earlier work
Procedure: (§3) The biofilm prevention was assayed parallel to the well-described 12 amino acids’ cationic AMP (VRLIVAVRIWRR), named IDR-1018 [19, 47, 48]. This innate defense component is derived from the natural bovine peptide Bactenecin and was reported to show antibiofilm activity against P. aeruginosa, E. coli, Acinetobacter baumannii, K. pneumoniae, Methicillin-resistant S. aureus, Salmonella Typhimurium, and Burkholderia cenocepacia. The inhibitory activity of IDR-1018 is based on the induced dispersal of cells from biofilms at very low peptide concentrations (0.8 µg/mL). The underlying ...

planktonic cells = conditions: weak direct antimicrobial activity on planktonic cells; cited from earlier work
Procedure: as §3

Sequence | turbidity (600 nm), P. aeruginosa (P. aeruginosa) | reduction of planktonic growth of P. aeruginosa (P. aeruginosa) | effect on P. aeruginosa biofilm formation (in words) (P. aeruginosa PAO1) | turbidity (600 nm), S. aureus (S. aureus [1]) | reduction of planktonic growth of S. aureus (S. aureus [1]) | effect on S. aureus biofilm formation (in words) (S. aureus [2]) | effect on K. oxytoca biofilm formation (in words) (K. oxytoca [3]) | effect on S. epidermidis biofilm formation (in words) (S. epidermidis RP62A) | turbidity (600 nm), K. oxytoca (K. oxytoca [4]) | turbidity (600 nm), S. epidermidis (S. epidermidis) | biofilm thickness (K. oxytoca M5aI) [µm] | biofilm volume (K. oxytoca M5aI) [µm^3] | reduction of K. oxytoca biofilm formation over concentration range (K. oxytoca [3]) | reduction of S. epidermidis biofilm formation over concentration range (S. epidermidis RP62A) | effect on planktonic growth (in words), high concentration [6] | reduction of K. oxytoca biofilm formation at 112.5 µg/mL (K. oxytoca [3]; versus biofilm control (100%)) [%] | other results
GRTTLYKKVGFFFFF [BiP_Ml_3, synthetic peptide from sORF of M. leidyi EST clone 010_9A] | 1.255 | 1.5–5% | no significant effect; also recorded: slight interference | 1.345 | 1.5–5% | no significant effect; also recorded: could not interfere with biofilm formation | no significant effect | growth increase at low peptide doses | 1.255 | 1.367 | – | – | – | – | – | – | reduction of S. epidermidis biofilm formation at 112.5 µg/mL (S. epidermidis RP62A; synthetic peptide at highest concentration 112.5 µg/mL, versus biofilm control (100%)): 38%
QLFCTKLSPT [BiP_Aa_2, synthetic peptide from sORF of A. aurita EST clone 112_6C] | 1.2593 | 1.5–5% | negligible impact | 1.304 | 1.5–5% | negligible impact; also recorded: could not interfere with biofilm formation | no significant change in biofilm formation until 14.1 µg/mL | appeared to reverse with increasing concentrations | 1.204 | 1.368 | 8 ± 3 | 34 ± 12 | up to 43% | 45% | – | – | aggregation with increasing peptide concentration [5]: dimerization
THSTMNFELHQRSIQSCSPKLL [BiP_Aa_4, synthetic peptide from sORF of A. aurita EST clone 127_8E] | 1.281 | – | limited effect | 1.347 | – | limited effect; also recorded: could not interfere with biofilm formation | limited effect | – | 1.219 | 1.386 | – | – | – | 23–47% | did not significantly inhibit planktonic growth | – | –
TNFTRKFPVINSSPHQWYLKD [BiP_Aa_6, synthetic peptide from sORF of A. aurita EST clone 127_8H] | 1.284 | – | initially increased and then gradually decreased, approaching control levels | 1.38 | – | – | – | – | 1.2508 | 1.393 | ≤ 8 ± 1 | 64 ± 36 | – | 43% | did not significantly inhibit planktonic growth | 26 | reduction of S. aureus biofilm formation over concentration range (S. aureus [2]; maximum or overall reduction): 6–23%
VRLIVAVRIWRR [IDR-1018, 12 amino acids' cationic AMP, biofilm-preventing control peptide derived from bovine Bactenecin, reference compound] | 1.23 | – | no interference; also recorded: almost unaffected | 1.036 | – | – | – | only affected to a minor extent | 1.187 | 1.203 | 6 ± 2 | 32 ± 16 | 50% | – | significantly reduced the planktonic growth of all strains | 70 | peptide concentration causing cell death of the biofilm cells (biofilm cells; higher concentrations): 10 µg/mL; peptide concentration inducing dispersal of cells from biofilms (biofilm cells; very low peptide concentrations): 0.8 µg/mL; MIC (planktonic cells): 19 µg/mL; effect on planktonic growth (in words), low concentration ([6]; 3.5 µg/mL, all pathogens): no effect was revealed; reduction of K. oxytoca biofilm formation at 3.5 µg/mL (K. oxytoca [3]; synthetic peptide 3.5 µg/mL, versus biofilm control (100%), on average): 30%
